Measured values reported in PMC6691401 (Journal of Medicinal Chemistry, 2019).
Where two headings read alike, the source gives them in different places. Values belong to the compound of their own block, whether it stands above or below them.

What was measured:
Mab TrmD [1] = target: T1, Mab TrmD (Mycobacteroides abscessus, UniProt B1MDI3); test: Isothermal titration calorimetry (ITC); format: binding; details: for GE (CH2R^1): group efficiency of CH2R^1; for LE: ligand efficiency; for GE (R^1): group efficiency of R^1; for GE: group efficiency of the added group
T1 sequence (B1MDI3 entry or part of it): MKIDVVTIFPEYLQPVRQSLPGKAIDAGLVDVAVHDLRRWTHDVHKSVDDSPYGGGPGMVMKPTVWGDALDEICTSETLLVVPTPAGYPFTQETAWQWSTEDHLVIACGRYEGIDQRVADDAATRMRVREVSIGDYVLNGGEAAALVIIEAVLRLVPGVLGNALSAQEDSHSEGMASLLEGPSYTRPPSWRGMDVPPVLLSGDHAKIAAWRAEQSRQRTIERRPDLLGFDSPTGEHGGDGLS

Mab TrmD [2] = target: T1, Mab TrmD; details: ligand efficiency, previously reported, cited from earlier work

- GE (CH2R^1) (Mab TrmD [1]; Table 6): 0.17 kcal mol^–1 per heavy atom
Compound: N#Cc1c(N)n[nH]c1-c1ccc2ccn(Cc3ccc(CN4CCCC4)cn3)c2c1 [Compound 28, 3-Amino-5-(1-((5-(pyrrolidin-1-ylmethyl)pyridin-2-yl)methyl)-1H-indol-6-yl)-1H-pyrazole-4-carbonitrile]
- LE (Mab TrmD [2]; Table 6): 0.32 kcal mol^–1 per heavy atom
- LE (Mab TrmD [2]): 0.32 kcal mol^–1 per heavy atom

- LE (Mab TrmD [1]; Table 2): 0.31 kcal mol^–1 per heavy atom
- LE (Mab TrmD [1]): 0.31 kcal mol^–1 per heavy atom
Compound: COc1cc(COC(=O)c2cn[nH]c2)cc(N2CCCC2)c1 [Compound 13, 3-Methoxy-5-(pyrrolidin-1-yl)benzyl 1H-Pyrazole-4-carboxylate]

Compound: CCOC(=O)c1cn[nH]c1 [Compound 1, ethyl 1H-pyrazole-4-carboxylate]
- LE (Mab TrmD [1]; Table 1): 0.55 kcal mol^–1 per heavy atom
- LE (Mab TrmD [1]): 0.55 kcal mol^–1 per heavy atom

- Kd (Mab TrmD [1]; Table 6): 710 ± 90 nM
- GE (CH2R^1) (Mab TrmD [1]; Table 6): 0.28 kcal mol^–1 per heavy atom
- LE (Mab TrmD [1]; Table 6): 0.29 kcal mol^–1 per heavy atom
Compound: Nc1cc(-c2ccc3ccn(Cc4ccc(CN5CCCCC5)cc4)c3c2)[nH]n1 [Compound 31b, 5-(1-(4-(Piperidin-1-ylmethyl)benzyl)-1H-indol-6-yl)-1H-pyrazol-3-amine]

- GE (R^1) (Mab TrmD [1]; Table 4): 0.04 kcal mol^–1 per heavy atom
- LE (Mab TrmD [1]; Table 4): 0.24 kcal mol^–1 per heavy atom
- LE (Mab TrmD [1]): 0.24 kcal mol^–1 per heavy atom
Compound: COc1ccc(Cn2ccc3ccc(-c4cc(N)n[nH]4)cc32)cc1 [Compound 24a, 5-(1-(4-Methoxybenzyl)-1H-indol-6-yl)-1H-pyrazol-3-amine]

Compound: Nc1cc(-c2ccc3cc[nH]c3c2)[nH]n1 [Compound 23, 5-(1H-Indol-6-yl)-1H-pyrazol-3-amine]
- LE (Mab TrmD [2]; Table 3): 0.36 kcal mol^–1 per heavy atom
- LE (Mab TrmD [2]): 0.36 kcal mol^–1 per heavy atom

Compound: CN1CCN(Cc2ccc(Cn3ccc4ccc(-c5[nH]nc(N)c5C#N)cc43)cc2)CC1 [Compound 29d, 3-Amino-5-(1-(4-((4-methylpiperazin-1-yl)methyl)benzyl)-1H-indol-6-yl)-1H-pyrazole-4-carbonitrile]
- LE (Mab TrmD [2]; Table 6): 0.30 kcal mol^–1 per heavy atom
- LE (Mab TrmD [2]): 0.30 kcal mol^–1 per heavy atom

- GE (R^1) (Mab TrmD [1]; Table 5): 0.16 kcal mol^–1 per heavy atom
- LE (Mab TrmD [1]; Table 5): 0.34 kcal mol^–1 per heavy atom
- LE (Mab TrmD [1]): 0.34 kcal mol^–1 per heavy atom
Compound: CN1CCCCC1Cn1ccc2ccc(-c3[nH]nc(N)c3C#N)cc21 (centres unmarked) [Compound 26n, 3-Amino-5-(1-((1-methylpiperidin-2-yl)methyl)-1H-indol-6-yl)-1H-pyrazole-4-carbonitrile]

- GE (R^1) (Mab TrmD [1]; Table 5): 0.10 kcal mol^–1 per heavy atom
- LE (Mab TrmD [1]; Table 5): 0.32 kcal mol^–1 per heavy atom
- LE (Mab TrmD [1]): 0.32 kcal mol^–1 per heavy atom
Compound: N#Cc1c(N)n[nH]c1-c1ccc2ccn(Cc3ccc(O)nc3)c2c1 [Compound 26k, 3-Amino-5-(1-((6-hydroxypyridin-3-yl)methyl)-1H-indol-6-yl)-1H-pyrazole-4-carbonitrile]

- GE (CH2R^1) (Mab TrmD [1]; Table 6): 0.36 kcal mol^–1 per heavy atom
Compound: Nc1cc(-c2ccc3ccn(Cc4ccc(CN5CCCC5)cc4)c3c2)[nH]n1 [Compound 31a, 5-(1-(4-(Pyrrolidin-1-ylmethyl)benzyl)-1H-indol-6-yl)-1H-pyrazol-3-amine]
- LE (Mab TrmD [2]; Table 6): 0.31 kcal mol^–1 per heavy atom

- LE (Mab TrmD [1]; Table 1): 0.41 kcal mol^–1 per heavy atom
- LE (Mab TrmD [1]): 0.41 kcal mol^–1 per heavy atom
Compound: O=C(OCc1ccccc1)c1cn[nH]c1 [Compound 3, Benzyl 1H-Pyrazole-4-carboxylate]

- GE (R^1) (Mab TrmD [1]; Table 4): 0.20 kcal mol^–1 per heavy atom
- GE (Mab TrmD [1]): 0.95 kcal mol^–1 per heavy atom
Compound: N#Cc1c(N)n[nH]c1-c1ccc2ccn(Cc3ccccn3)c2c1 [Compound 26f, 3-Amino-5-(1-(pyridin-2-ylmethyl)-1H-indol-6-yl)-1H-pyrazole-4-carbonitrile]
- LE (Mab TrmD [2]; Table 4): 0.36 kcal mol^–1 per heavy atom
- LE (Mab TrmD [2]): 0.36 kcal mol^–1 per heavy atom

- fold improvement in binding affinity (decrease of Kd) relative to 26f (Mab TrmD [1]): greater than 2 fold
- GE (R^1) (Mab TrmD [1]; Table 5): 0.28 kcal mol^–1 per heavy atom
- LE (Mab TrmD [1]; Table 5): 0.38 kcal mol^–1 per heavy atom
- LE (Mab TrmD [1]): 0.38 kcal mol^–1 per heavy atom
Compound: N#Cc1c(N)n[nH]c1-c1ccc2ccn(Cc3cccnc3)c2c1 [Compound 26g, 3-Amino-5-(1-(pyridin-3-ylmethyl)-1H-indol-6-yl)-1H-pyrazole-4-carbonitrile]

- LE (Mab TrmD [1]; Table 4): 0.43 kcal mol^–1 per heavy atom
- GE (Mab TrmD [1]): 0.91 kcal mol^–1 per heavy atom
- LE (Mab TrmD [1]): 0.43 kcal mol^–1 per heavy atom
Compound: N#Cc1c(N)n[nH]c1-c1ccc2cc[nH]c2c1 [Compound 25, 3-Amino-5-(1H-indol-6-yl)-1H-pyrazole-4-carbonitrile]

- LE (Mab TrmD [1]; Table 5): 0.28 kcal mol^–1 per heavy atom
- LE (Mab TrmD [1]): 0.28 kcal mol^–1 per heavy atom
Compound: N#Cc1c(N)n[nH]c1-c1ccc2c(Cl)cn(Cc3cccnc3)c2c1 [Compound 27g, 3-Amino-5-(3-chloro-1-(pyridin-3-ylmethyl)-1H-indol-6-yl)-1H-pyrazole-4-carbonitrile]

- GE (R^1) (Mab TrmD [1]; Table 4): 0.15 kcal mol^–1 per heavy atom
- LE (Mab TrmD [1]; Table 4): 0.28 kcal mol^–1 per heavy atom
- LE (Mab TrmD [1]): 0.28 kcal mol^–1 per heavy atom
Compound: N#Cc1ccccc1Cn1ccc2ccc(-c3cc(N)n[nH]3)cc21 [Compound 24d, 2-((6-(3-Amino-1H-pyrazol-5-yl)-1H-indol-1-yl)methyl)benzonitrile]

- LE (Mab TrmD [1]; Table 2): 0.32 kcal mol^–1 per heavy atom
- LE (Mab TrmD [1]): 0.32 kcal mol^–1 per heavy atom
Compound: COC(=O)COc1cccc(COC(=O)c2cn[nH]c2)c1 [Compound 8, 3-(2-Methoxy-2-oxoethoxy)benzyl 1H-Pyrazole-4-carboxylate]

- Kd (Mab TrmD [1]; Table 6): 190 ± 23 nM
- LE (Mab TrmD [1]; Table 6): 0.30 kcal mol^–1 per heavy atom
- LE (Mab TrmD [1]): 0.30 kcal mol^–1 per heavy atom
Compound: N#Cc1c(N)n[nH]c1-c1ccc2ccn(Cc3ccc(CN4CCOCC4)cc3)c2c1 [Compound 29c, 3-Amino-5-(1-(4-(morpholinomethyl)benzyl)-1H-indol-6-yl)-1H-pyrazole-4-carbonitrile]

- LE (Mab TrmD [1]; Table 2): 0.28 kcal mol^–1 per heavy atom
- LE (Mab TrmD [1]): 0.28 kcal mol^–1 per heavy atom
Compound: COc1cc(COC(=O)c2cn[nH]c2)cc(Cc2cccnc2)c1 [Compound 15]

- Kd (Mab TrmD [1]; Table 6): 2000 ± 310 nM
- LE (Mab TrmD [1]; Table 6): 0.27 kcal mol^–1 per heavy atom
Compound: Cc1c(N)n[nH]c1-c1ccc2ccn(Cc3ccc(CN4CCCC4)cc3)c2c1 [Compound 30a, 4-Methyl-5-(1-(4-(pyrrolidin-1-ylmethyl)benzyl)-1H-indol-6-yl)-1H-pyrazol-3-amine]

- LE (Mab TrmD [1]; Table 2): 0.24 kcal mol^–1 per heavy atom
- LE (Mab TrmD [1]): 0.24 kcal mol^–1 per heavy atom
Compound: CCOC(=O)c1cnn(CC#Cc2cc(COC(=O)c3cn[nH]c3)cc(OC)c2)c1 [Compound 12, Ethyl 1-(3-(3-(((1H-Pyrazole-4-carbonyl)oxy)methyl)-5-methoxyphenyl)prop-2-yn-1-yl)-1H-pyrazole-4-carboxylate]

- GE (R^1) (Mab TrmD [1]; Table 5): 0.20 kcal mol^–1 per heavy atom
- LE (Mab TrmD [1]; Table 5): 0.35 kcal mol^–1 per heavy atom
- LE (Mab TrmD [1]): 0.35 kcal mol^–1 per heavy atom
Compound: CN1CCCC(Cn2ccc3ccc(-c4[nH]nc(N)c4C#N)cc32)C1 (centres unmarked) [Compound 26o, 3-Amino-5-(1-((1-methylpiperidin-3-yl)methyl)-1H-indol-6-yl)-1H-pyrazole-4-carbonitrile]

- Kd (Mab TrmD [1]; Table 6): 70 ± 29 nM
- LE (Mab TrmD [1]; Table 6): 0.31 kcal mol^–1 per heavy atom
Compound: N#Cc1c(N)n[nH]c1-c1ccc2ccn(Cc3ccc(CN4CCCCC4)cc3)c2c1 [Compound 29b, 3-Amino-5-(1-(4-(piperidin-1-ylmethyl)benzyl)-1H-indol-6-yl)-1H-pyrazole-4-carbonitrile]

- LE (Mab TrmD [1]; Table 2): 0.38 kcal mol^–1 per heavy atom
- LE (Mab TrmD [1]): 0.38 kcal mol^–1 per heavy atom
Compound: CCOc1cccc(COC(=O)c2cn[nH]c2)c1 [Compound 10, 3-Ethoxybenzyl 1H-Pyrazole-4-carboxylate]

- GE (R^1) (Mab TrmD [1]; Table 4): 0.14 kcal mol^–1 per heavy atom
- LE (Mab TrmD [1]; Table 4): 0.28 kcal mol^–1 per heavy atom
- GE (Mab TrmD [1]): 0.14 kcal mol^–1 per heavy atom
- LE (Mab TrmD [1]): 0.28 kcal mol^–1 per heavy atom
Compound: COc1cccc(Cn2ccc3ccc(-c4cc(N)n[nH]4)cc32)c1 [Compound 24b, 5-(1-(3-Methoxybenzyl)-1H-indol-6-yl)-1H-pyrazol-3-amine]

- Kd (Mab TrmD [1]; Table 6): 100 ± 24 nM
- LE (Mab TrmD [1]; Table 6): 0.28 kcal mol^–1 per heavy atom
- LE (Mab TrmD [1]): 0.28 kcal mol^–1 per heavy atom
Compound: CC(C)N1CCN(Cc2ccc(Cn3ccc4ccc(-c5[nH]nc(N)c5C#N)cc43)cc2)CC1 [Compound 29e, 3-Amino-5-(1-(4-((4-isopropylpiperazin-1-yl)methyl)benzyl)-1H-indol-6-yl)-1H-pyrazole-4-carbonitrile]

- GE (R^1) (Mab TrmD [1]; Table 5): 0.03 kcal mol^–1 per heavy atom
- LE (Mab TrmD [1]; Table 5): 0.30 kcal mol^–1 per heavy atom
- LE (Mab TrmD [1]): 0.30 kcal mol^–1 per heavy atom
Compound: N#Cc1c(N)n[nH]c1-c1ccc2ccn(Cc3cccnc3O)c2c1 [Compound 26j, 3-Amino-5-(1-((2-hydroxypyridin-3-yl)methyl)-1H-indol-6-yl)-1H-pyrazole-4-carbonitrile]

- LE (Mab TrmD [1]; Table 2): 0.31 kcal mol^–1 per heavy atom
- LE (Mab TrmD [1]): 0.31 kcal mol^–1 per heavy atom
Compound: COc1cc(COC(=O)c2cn[nH]c2)cc(-c2cccnc2)c1 [Compound 14, 3-Methoxy-5-(pyridin-3-yl)benzyl 1H-Pyrazole-4-carboxylate]

- LE (Mab TrmD [1]; Table 1): 0.36 kcal mol^–1 per heavy atom
Compound: N#Cc1cccc(COC(=O)c2cn[nH]c2)c1 [Compound 6, 3-Cyanobenzyl 1H-Pyrazole-4-carboxylate]

- fold improvement in binding affinity (decrease of Kd) relative to 26f (Mab TrmD [1]): 4 fold
- GE (R^1) (Mab TrmD [1]; Table 5): 0.31 kcal mol^–1 per heavy atom
- LE (Mab TrmD [1]; Table 5): 0.39 kcal mol^–1 per heavy atom
- LE (Mab TrmD [1]): 0.39 kcal mol^–1 per heavy atom
Compound: N#Cc1c(N)n[nH]c1-c1ccc2ccn(Cc3ccncc3)c2c1 [Compound 26l, 3-Amino-5-(1-(pyridin-4-ylmethyl)-1H-indol-6-yl)-1H-pyrazole-4-carbonitrile]

- LE (Mab TrmD [1]; Table 1): 0.39 kcal mol^–1 per heavy atom
- LE (Mab TrmD [1]): 0.39 kcal mol^–1 per heavy atom
Compound: COc1cccc(COC(=O)c2cn[nH]c2)c1 [Compound 7, 3-Methoxybenzyl 1H-Pyrazole-4-carboxylate]
